# Results reported in patent US20230381142A1, “ANTILEISHMANIAL COMPOUNDS, COMPOSITIONS AND USE THEREOF” (TRUSTEES OF BOSTON UNIVERSITY, priority 2022, published 2023).
# How the values were obtained:
# [1] = GSK inMac assay, host cell toxicity readout (LD MAC); assay type: cell-based, human; details: human; footnote c; read-out: THP-1 Host Cell CC50
# Summary of the method: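 MAC EC50 reflects THP-1 host cell counts, measured within GSK's inMac L. donovani infection assay that also scores intracellular amastigotes and infected-cell percentage.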
# [2] = test system: L. donovani intracellular amastigotes in B10R cells; assay: UCSD L. donovani infection assay (Assay Conditions D); assay type: cell-based; details: B10R cells; for L. donovani amastigotes EC75 (B10R cells): footnote d; for EC50: Leishmania donovani, values marked d, read-out: L. donovani amastigotes EC50 (B10R cells)
# Protocol: (§1) Assay Conditions D: B10R cells (CVCL_0155) were seeded at 300 cells/well, and L. donovani WT promastigotes in stationary phase (7th day after passage) were added at 6,000 parasites/well (ratio of 20 parasites/cell). Both cells and parasites were seeded in DMEM High-Glucose medium (Gibco, cat. no. 11995065) containing 5% Fetal Bovine Serum (Sigma-Aldrich, cat. no. F2442) and 1% Penicillin-Streptomycin (Gibco, cat. no. 15140122). Cells and parasites were incubated in the presence of the compounds for 72 h at 37° C. and 5% C02. Plates were then fixed with 4% formaldehyde solution for at least 1 h, then washed with 1×PBS and stained with 5 μg/mL DAPI. Plates were read using an ImageXpress microscope (Molecular Devices) and analyzed by MetaXpress software (Molecular Devices) using a custom module optimized for this assay. […] Compounds were tested in a 10-point 2-fold serial dilution in 3 technical replicates, and 2 biological replicates. After 72 h, plates were fixed and stained with DAPI as described above. Images were acquired on an ImageXpress microscope, and analyzed using the MetaXpress custom module.
# as §1, with “Compounds were obtained as 0.2 μmoles of dried film for primary single point screening. Each compound was diluted in DMSO to 10 μM final testing concentration. These compounds were tested in 2 biological replicates. The compounds were pre-spotted onto 384-well assay plates in single concentration.” for “Assay Conditions D:”, “CO2.” for “C02.”, “module. The DRCs were plotted, half-effective concentration (EC50) and half-cytotoxic concentration (CC50) were calculated using GraphPad Prism Software, version 6.05 (GraphPad Software, San Diego, CA).” for “module.”
# [3] = test system: L. donovani intracellular amastigotes infecting THP-1 macrophages; assay: GSK intramacrophage L. donovani assay (LD AMMAC, inMac; Assay Conditions C); assay type: cell-based; details: Leishmania donovani; THP-1 cells; values marked c; read-out: L. donovani amastigotes EC50 (THP-1 cells)
# Summary of the method: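 EC50 values come from counting amastigotes per infected THP-1 macrophage (AMMAC). Parallel read-outs give percentage of infected cells per well (INFCELL) and a macrophage-number toxicity EC50 (MAC).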
EC50 [2] [µM],EC50 [3] [µM],Compound,CC50 [1] [µM],L. donovani amastigotes EC75 (B10R cells) [2] [µM]
–,5,COc1cccc(N2C(=O)c3[nH]nc(CC(C)C)c3C2c2cccc(C(F)(F)F)c2)c1 (centres unmarked) [CMLD011140],20,–
–,7.9,COc1ccccc1N1C(=O)c2[nH]nc(CC(C)C)c2C1c1cccc(C(F)(F)F)c1 (centres unmarked) [CMLD011141],20,–
–,> 50,COc1ccc(N2C(=O)c3[nH]nc(CC(C)C)c3C2c2ccncc2)cc1 (centres unmarked) [CMLD011142],> 50,–
–,> 100,CC(C)Cc1n[nH]c2c1C(c1ccc(F)cc1)N(c1ccc(S(N)(=O)=O)cc1)C2=O (centres unmarked) [CMLD011495],20,–
–,10,COc1ccc(N2C(=O)c3[nH]nc(CC(C)C)c3C2c2ccncc2Cl)cc1 (centres unmarked) [CMLD011496],20,–
–,3.2,CC(C)Cc1n[nH]c2c1C(c1ccc(F)cc1)N(c1ccccc1N(C)C)C2=O (centres unmarked) [CMLD011499],10,–
0.3,–,COc1ccccc1C1c2c(CC(C)C)n[nH]c2C(=O)N1c1ccc2c(c1)OCO2 (centres unmarked) [CMLD011546],> 20,0.3
–,2.5,CC(C)Cc1n[nH]c2c1C(c1c(Cl)cccc1Cl)N(c1ccc3c(c1)OCO3)C2=O (centres unmarked) [CMLD011547],20,–
–,7.9,CC(C)Cc1n[nH]c2c1C(c1c(Cl)cccc1Cl)N(c1ccc(Br)cc1)C2=O (centres unmarked) [CMLD011550],20,–
–,> 100,CC(C)Cc1n[nH]c2c1C(c1ccc(F)cc1)N(c1ccc3[nH]c(O)nc3c1)C2=O (centres unmarked) [CMLD011556],20,–
–,> 100,CC(C)Cc1n[nH]c2c1C(c1ccc(F)cc1)N(c1ccc3[nH]cnc3c1)C2=O (centres unmarked) [CMLD011557],20,–
–,> 100,CC(C)Cc1n[nH]c2c1C(c1ccc(F)cc1)N(c1ccc(S(=O)(=O)N3CCCC3)cc1)C2=O (centres unmarked) [CMLD011558],20,–
–,> 100,COc1ccc(N2C(=O)c3[nH]nc(CC(C)C)c3C2c2cccnc2Cl)cc1 (centres unmarked) [CMLD011559],20,–
–,6.3,COc1ccc(N2C(=O)c3[nH]nc(CC(C)C)c3C2c2c(Cl)cccc2Cl)cc1F (centres unmarked) [CMLD011568],20,–
–,5,COc1ccc(N2C(=O)c3[nH]nc(CC(C)C)c3C2c2c(Cl)cccc2Cl)cn1 (centres unmarked) [CMLD011569],20,–
–,0.5,COc1ccc(N2C(=O)c3[nH]nc(CC(C)C)c3C2c2ccc(F)cc2OC)cc1F (centres unmarked) [CMLD011573],7.9,–
–,10,COc1ccc(N2C(=O)c3[nH]nc(CC(C)C)c3C2c2ncccc2Cl)cc1 (centres unmarked) [CMLD011575],20,–
–,25.1,COc1ccc(N2C(=O)c3[nH]nc(CC(C)C)c3C2c2cccnc2OC)cc1 (centres unmarked) [CMLD0011576],10,–
–,10,COc1ccc(N2C(=O)c3[nH]nc(CC(C)C)c3C2c2cnccc2OC)cc1 (centres unmarked) [CMLD011577],20,–
–,> 100,COc1ccc(N2C(=O)c3[nH]nc(CC(C)C)c3C2c2ncccc2OC)cc1 (centres unmarked) [CMLD011578],20,–
–,> 100,COc1ccc(N2C(=O)c3[nH]nc(CC(C)C)c3C2c2cnccc2Cl)cc1 (centres unmarked) [CMLD011579],20,–
1,–,COc1ccc(N2C(=O)c3[nH]nc(CC(C)C)c3C2c2ccccc2Br)cn1 (centres unmarked) [CMLD012218],> 20,0.4
–,5,COc1ccc(N2C(=O)c3[nH]nc(CC(C)C)c3C2c2ccc(F)c(F)c2)cc1 (centres unmarked) [CMLD013640],25.1,–

# The remaining lines, values behind:
Compound,EC50 [2] [µM],EC50 [3] [µM],CC50 [1] [µM],L. donovani amastigotes EC75 (B10R cells) [2] [µM]
CC(C)Cc1n[nH]c2c1C(c1ccccc1Cl)N(c1ccc3ncnn3c1)C2=O (centres unmarked) [CMLD010921],0.6,–,> 20,0.6
COc1ccc(N2C(=O)c3[nH]nc(CC(C)C)c3C2c2ccccc2Cl)c(OC)c1 (centres unmarked) [CMLD011103],–,10,20,–
COc1ccc(N2C(=O)c3[nH]nc(CC(C)C)c3C2c2ccsc2)cc1 (centres unmarked) [CMLD011104],–,6.3,> 50,–
CC(C)Cc1n[nH]c2c1C(c1ccc(F)cc1)N(c1ccc3c(c1)OC(F)(F)O3)C2=O (centres unmarked) [CMLD011105],–,2.5,12.6,–
COc1ccc(N2C(=O)c3[nH]nc(CC(C)C)c3C2c2cccc(C(F)(F)F)c2)cc1F (centres unmarked) [CMLD011106],–,6.3,25.1,–
COc1ccc(N2C(=O)c3[nH]nc(CC(C)C)c3C2c2ccccc2Br)c(OC)c1 (centres unmarked) [CMLD011109],–,6.3,15.8,–
COc1ccc(N2C(=O)c3[nH]nc(CC(C)C)c3C2c2cccs2)cc1 (centres unmarked) [CMLD011110],–,7.9,> 50,–
CC(C)Cc1n[nH]c2c1C(c1ccccc1Br)N(c1ccc(F)cc1)C2=O (centres unmarked) [CMLD011111],–,4,15.8,–
COc1ccccc1N1C(=O)c2[nH]nc(CC(C)C)c2C1c1ccccc1Br (centres unmarked) [CMLD011112],–,12.6,25.1,–
CC(C)Cc1n[nH]c2c1C(c1ccc(F)cc1)N(c1ccc(F)cc1)C2=O (centres unmarked) [CMLD011113],–,6.3,25.1,–
COc1ccc(N2C(=O)c3[nH]nc(CC(C)C)c3C2c2cccc(C(F)(F)F)c2)c(OC)c1 (centres unmarked) [CMLD011115],–,12.6,20,–
COc1cc(N2C(=O)c3[nH]nc(CC(C)C)c3C2c2ccccc2Cl)cc(OC)c1OC (centres unmarked) [CMLD011116],–,5,6.3,–
COCCN1C(=O)c2[nH]nc(CC(C)C)c2C1c1ccc(F)cc1 (centres unmarked) [CMLD011117],–,> 50,> 50,–
CC(C)Cc1n[nH]c2c1C(c1cccc(C(F)(F)F)c1)N(c1ccc(F)cc1)C2=O (centres unmarked) [CMLD011119],–,2.5,25.1,–
COc1ccc(N2C(=O)c3[nH]nc(CC(C)C)c3C2c2ccc(F)c(C)n2)cc1 (centres unmarked) [CMLD011120],–,12.6,> 50,–
COc1ccc(N2C(=O)c3[nH]nc(CC(C)C)c3C2c2ccc(C(F)(F)F)cc2)cc1 (centres unmarked) [CMLD011121],–,8,15.9,–
CC(C)Cc1n[nH]c2c1C(c1cccc(C(F)(F)F)c1)N(c1ccc(C(C)(C)C)cc1)C2=O (centres unmarked) [CMLD011122],–,6.3,10,–
CC(C)Cc1n[nH]c2c1[C@@H](c1ccc(F)cc1)N([C@H]1CC[C@H](N(C)C)CC1)C2=O [CMLD011124],–,25.1,> 50,–
COc1ccc(N2C(=O)c3[nH]nc(CC(C)C)c3C2c2ccccn2)cc1 (centres unmarked) [CMLD011125],–,31.6,> 50,–
CC(C)Cc1n[nH]c2c1C(c1cccc(C(F)(F)F)c1)N(CCN1CCCC1)C2=O (centres unmarked) [CMLD011126],–,20,39.8,–
CC(C)Cc1n[nH]c2c1C(c1ccc(F)cc1)N(CC1CCN(C)C1)C2=O (centres unmarked) [CMLD011129],–,> 50,> 50,–
COc1ccccc1N1C(=O)c2[nH]nc(CC(C)C)c2C1c1ccccc1Cl (centres unmarked) [CMLD011130],–,15.8,25.1,–
CC(C)Cc1n[nH]c2c1C(c1cccc(Cl)c1)N(c1ccc(C(C)(C)C)cc1)C2=O (centres unmarked) [CMLD011131],–,2.5,15.8,–
CC(C)Cc1n[nH]c2c1C(c1cccc(Cl)c1)N(c1ccc3c(c1)OCO3)C2=O (centres unmarked) [CMLD011132],–,5,20,–
COc1cccc(N2C(=O)c3[nH]nc(CC(C)C)c3C2c2cccc(Cl)c2)c1 (centres unmarked) [CMLD011133],–,5,25.1,–
COc1ccccc1N1C(=O)c2[nH]nc(CC(C)C)c2C1c1cccc(Cl)c1 (centres unmarked) [CMLD011134],–,7.9,15.8,–
CC(C)Cc1n[nH]c2c1C(c1ccsc1)N(c1ccc(C(C)(C)C)cc1)C2=O (centres unmarked) [CMLD011135],–,4,> 50,–
COc1ccc(N2C(=O)c3[nH]nc(CC(C)C)c3C2c2ccsc2)cn1 (centres unmarked) [CMLD011137],–,10,25.1,–
COc1ccccc1N1C(=O)c2[nH]nc(CC(C)C)c2C1c1ccsc1 (centres unmarked) [CMLD011138],–,7.9,15.8,–
